Source: ChEMBL document CHEMBL1201862, “PubChem BioAssay data set” (2004)
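Following 48 hours of exposure in 96-well plates, responses at five concentrations were used to interpolate endpoints linearly. GI50: concentration for 50% inhibition of growth.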 Calls of active or inactive are those of the source. Rule as the data show it: active = GI50 up to about 1.1 µM and inactive = higher.

Experiments:
Assay in all cases: inhibition of tumour cell growth, NCI panel, 48 h
786-0 = system: 786-0
BT-549 = system: BT-549
COLO 205 = system: COLO 205
DU-145 = system: DU-145
EKVX = system: EKVX
HCT-116 = system: HCT-116
HOP-62 = system: HOP-62
K562 = system: K562
LOX IMVI = system: LOX IMVI
NCI-H522 = system: NCI-H522
NCI/ADR-RES = system: NCI/ADR-RES
OVCAR-4 = system: OVCAR-4
PC-3 = system: PC-3
RPMI-8226 = system: RPMI-8226
SF-268 = system: SF-268
SK-OV-3 = system: SK-OV-3
SNB-19 = system: SNB-19
UACC-62 = system: UACC-62
UO-31 = system: UO-31
RXF 393 = system: RXF 393

Structure (SMILES) | GI50 (786-0) | GI50 (BT-549) | GI50 (COLO 205) | GI50 (DU-145) | GI50 (EKVX) | GI50 (HCT-116) | GI50 (HOP-62) | GI50 (K562) | GI50 (LOX IMVI) | GI50 (NCI-H522) | GI50 (NCI/ADR-RES) | GI50 (OVCAR-4) | GI50 (PC-3) | GI50 (RPMI-8226) | GI50 (SF-268) | GI50 (SK-OV-3) | GI50 (SNB-19) | GI50 (UACC-62) | GI50 (UO-31) | GI50 (RXF 393)
CCCCS(=O)(=O)CCC(N)P(=O)(O)O (stereo unspecified) | > 100 µM (inactive) | > 100 µM (inactive) | > 100 µM (inactive) | > 100 µM (inactive) | > 100 µM (inactive) | > 100 µM (inactive) | > 100 µM (inactive) | > 100 µM (inactive) | > 100 µM (inactive) | > 100 µM (inactive) | > 100 µM (inactive) | > 100 µM (inactive) | > 100 µM (inactive) | > 100 µM (inactive) | > 100 µM (inactive) | > 100 µM (inactive) | > 100 µM (inactive) | > 100 µM (inactive) | > 100 µM (inactive) | 
COC12C=CC(CC1)C1C(=O)c3c(C)c(C)n(C)c3C(=O)C12 (stereo unspecified) | > 100 µM (inactive) | > 100 µM (inactive) | > 100 µM (inactive) | > 100 µM (inactive) | > 100 µM (inactive) | 89.5 µM (inactive) | > 100 µM (inactive) | > 100 µM (inactive) | > 100 µM (inactive) |  | > 100 µM (inactive) |  | > 100 µM (inactive) | 85.1 µM (inactive) | > 100 µM (inactive) | > 100 µM (inactive) | > 100 µM (inactive) | 40.9 µM (inactive) | 36.1 µM (inactive) | > 100 µM (inactive)
CCC(=O)/C(=C\I)c1ccccc1 | 1.78 µM (inactive) | 1.79 µM (inactive) | 2.05 µM (inactive) | 7.19 µM (inactive) | 19.2 µM (inactive) | 1.79 µM (inactive) | 21 µM (inactive) | 0.796 µM (active) | 1.27 µM (inactive) |  | 12.4 µM (inactive) |  | 3.01 µM (inactive) | 3.33 µM (inactive) | 16.7 µM (inactive) | 16.6 µM (inactive) | 15.3 µM (inactive) | 2.49 µM (inactive) | 2.05 µM (inactive) | 1.52 µM (inactive)
O=C1c2cc(-c3ccccc3)cnc2S(=O)(=O)N1c1ccc(Br)cc1 | 37.6 µM (inactive) | > 100 µM (inactive) | > 100 µM (inactive) | 58.3 µM (inactive) | > 100 µM (inactive) | 71.9 µM (inactive) | 16.8 µM (inactive) |  | 41.1 µM (inactive) | 14.8 µM (inactive) | 83.6 µM (inactive) |  | 34.4 µM (inactive) | 21.1 µM (inactive) | 33.7 µM (inactive) | 26.2 µM (inactive) | 15.8 µM (inactive) | 32.8 µM (inactive) | > 100 µM (inactive) | 
N#Cc1nn(C(N)=O)c(N)c1C#N | > 100 µM (inactive) | > 100 µM (inactive) | > 100 µM (inactive) | > 100 µM (inactive) | > 100 µM (inactive) | > 100 µM (inactive) | > 100 µM (inactive) | > 100 µM (inactive) |  | > 100 µM (inactive) | > 100 µM (inactive) | > 100 µM (inactive) | > 100 µM (inactive) |  | > 100 µM (inactive) | > 100 µM (inactive) | > 100 µM (inactive) | > 100 µM (inactive) | > 100 µM (inactive) | 
COc1cc(C2SCC(=O)N2c2ccc(-c3ccc(-n4c(-c5ccccc5)nc5ccccc5c4=O)cc3)cc2)ccc1O (stereo unspecified) | 29.6 µM (inactive) | > 100 µM (inactive) | > 100 µM (inactive) | > 100 µM (inactive) | > 100 µM (inactive) | 47.8 µM (inactive) | > 100 µM (inactive) | 46.7 µM (inactive) | 27.2 µM (inactive) | 35.1 µM (inactive) | 13.6 µM (inactive) | 37.9 µM (inactive) | 40.4 µM (inactive) | > 100 µM (inactive) | 32.7 µM (inactive) | 16 µM (inactive) | > 100 µM (inactive) | 21.8 µM (inactive) | 24.4 µM (inactive) | 
Oc1ccc(O)c(Sc2nnc(CCCCCCCCc3nnc(Sc4cc(O)ccc4O)o3)o2)c1 | 19 µM (inactive) | 74.8 µM (inactive) | 48.3 µM (inactive) | > 100 µM (inactive) | > 100 µM (inactive) | 18.1 µM (inactive) | > 100 µM (inactive) | 39.8 µM (inactive) |  | 23.8 µM (inactive) | > 100 µM (inactive) | 33.1 µM (inactive) | > 100 µM (inactive) | 23.1 µM (inactive) | 73.6 µM (inactive) | > 100 µM (inactive) | > 100 µM (inactive) | 47.5 µM (inactive) | 16.6 µM (inactive) | 
